In article PMC7114339 (Antiviral Research, 2020):
“Also recorded” adds a separate entry of the source.

Assays:
(AC)15 sequence = assay type: cell-based
tumor growth = conditions: xenograft mouse model ref Wolfe et al., 2014; cited from earlier work
[1] = system: 5′-terminal hairpin of VP35 (VP35-HP only); assay type: cell-based, EBOV
(AG)15 construct = test: cells; assay type: cell-based; conditions: read-out: inhibited translation
5′-UTR of HCoV-229E = assay type: cell-based
ZIKV = test: Antiviral activity in ZIKV-infected A549 cells; assay type: cell-based; conditions: ZIKV RNA, MOI 0.1, 24 hpi
HEV = assay type: cell-based
5′-UTR of MERS-CoV = assay type: cell-based
5′-UTR of HEV (HEVgt3c) = assay type: cell-based; conditions: 10 nM
A549 cells = conditions: human
VP35-HP+(AG)5 = assay type: cell-based, EBOV
CCHFV = test: cells; assay type: cell-based
in vitro = conditions: human
[2] = Cell toxicity in murine hepatocytes; conditions: mouse, murine hepatocytes (mock infected)
HCoV-229E [3] = assay type: cell-based
5′-UTR of EBOV VP30 mRNA = assay type: cell-based
5′-UTR of EBOV VP35 = assay type: cell-based
[4] = system: HEVgt3c-G4C and HEVgt3c-G4CC6A; assay type: cell-based, HEV
HCoV-229E [5] = test: microbe, parasite or virus in culture; assay type: cell-based; conditions: Human coronavirus 229E, MRC5
LASV = test: cells; assay type: cell-based
[6] = system: persistently HEV-infected A549 cells; test: Cell viability of persistently HEV-infected A549 cells; conditions: 2 nM, 72 h
HEVgt3c-Purine 5′-UTR = assay type: cell-based, HEV
[7] = 2014, cited from earlier work

Compound: COC(=O)[C@H]1[C@@H](O)[C@@]2(O)c3c(OC)cc(O[C@@H]4O[C@@H]([C@H](O)CO)CO[C@H]4OC)cc3O[C@@]2(c2ccc(OC)cc2)[C@@H]1c1ccccc1 [Silvestrol]
- induction of luciferase activity ((AC)15 sequence): 1.5 fold
- tumor growth (tumor growth): reduced tumor growth efficiently
- effect on reporter activity [1]: sufficient to mediate translation inhibition
- inhibition at 0.01 µM ((AG)15 construct): ~55%
- sensitivity to translation inhibition (5′-UTR of HCoV-229E): similarly sensitive
- EC50 (ZIKV): 0.00108 µM
- antiviral effect against HEV (extracellular viral RNA levels) (HEV): confirmed the antiviral activity; also recorded: reduce the levels of extracellular HEV RNA
- sensitivity to translation inhibition (5′-UTR of MERS-CoV): similarly sensitive
- luciferase activity (5′-UTR of HEV (HEVgt3c)): reduced luciferase activity
- CC50 (A549 cells): 0.00942 µM
- effect on reporter activity (VP35-HP+(AG)5): slightly increased translation inhibition
- virus titer drop, CCHFV (CCHFV): 3 log
- EC50 (CCHFV; Mus musculus, Hepatocyte): 0.0285 µM
- CC50 (in vitro): > 10 µM
- CC50 [2]: > 5 µM
- virus titer in the supernatant reduced by (HCoV-229E [3]): similar
- infectious virus production (HCoV-229E [3]; 100 nM): undetectable levels
- sensitivity to translation inhibition (5′-UTR of EBOV VP30 mRNA): similarly sensitive
- sensitivity to translation inhibition (5′-UTR of EBOV VP35): sensitive
- inhibitory effect [4]: gradual loss of the inhibitory effect
- EC50 (HCoV-229E [5]): 0.003 µM
- virus titer drop, LASV (LASV): ~ 4 log
- EC50 (LASV; Mus musculus, Hepatocyte): 0.0507 µM
- cytotoxicity [6]: some cytotoxicity
- sensitivity to treatment (HEVgt3c-Purine 5′-UTR): sensitive

Compound: CR-31-B
- cytotoxic effects (MRC-5 cells): no major cytotoxic effects
- tumor growth (tumor growth): reduced tumor growth efficiently
- body weight or the number of blood cells ([7]; mice ref Wolfe et al.): did not change
- toxicity in the gastrointestinal tract ([7]; mice ref Wolfe et al.): no toxicity could be observed
- serum levels of aminotransferases (ALT and AST), albumin, total bilirubin, creatinine ([7]; two weeks after cessation of treatment ref Wolfe et al.): not significantly changed
- cytotoxicity [6]: not cytotoxic
